This note sets out measurements from article PMC7133791 (ChemMedChem, 2020).

The target in test [1] is M. tuberculosis topoI (MttopoI) (Mycobacterium tuberculosis, UniProt P9WG49). The experiment in a line: DNA relaxation inhibition assay. Format: biochemical. Conditions: assay conditions for MttopoI not stated; data not shown.
Test [2] concerns the target T1, Escherichia coli topoisomerase I (EctopoI) (Escherichia coli, UniProt P06612).
T1 sequence (P06612 1-865): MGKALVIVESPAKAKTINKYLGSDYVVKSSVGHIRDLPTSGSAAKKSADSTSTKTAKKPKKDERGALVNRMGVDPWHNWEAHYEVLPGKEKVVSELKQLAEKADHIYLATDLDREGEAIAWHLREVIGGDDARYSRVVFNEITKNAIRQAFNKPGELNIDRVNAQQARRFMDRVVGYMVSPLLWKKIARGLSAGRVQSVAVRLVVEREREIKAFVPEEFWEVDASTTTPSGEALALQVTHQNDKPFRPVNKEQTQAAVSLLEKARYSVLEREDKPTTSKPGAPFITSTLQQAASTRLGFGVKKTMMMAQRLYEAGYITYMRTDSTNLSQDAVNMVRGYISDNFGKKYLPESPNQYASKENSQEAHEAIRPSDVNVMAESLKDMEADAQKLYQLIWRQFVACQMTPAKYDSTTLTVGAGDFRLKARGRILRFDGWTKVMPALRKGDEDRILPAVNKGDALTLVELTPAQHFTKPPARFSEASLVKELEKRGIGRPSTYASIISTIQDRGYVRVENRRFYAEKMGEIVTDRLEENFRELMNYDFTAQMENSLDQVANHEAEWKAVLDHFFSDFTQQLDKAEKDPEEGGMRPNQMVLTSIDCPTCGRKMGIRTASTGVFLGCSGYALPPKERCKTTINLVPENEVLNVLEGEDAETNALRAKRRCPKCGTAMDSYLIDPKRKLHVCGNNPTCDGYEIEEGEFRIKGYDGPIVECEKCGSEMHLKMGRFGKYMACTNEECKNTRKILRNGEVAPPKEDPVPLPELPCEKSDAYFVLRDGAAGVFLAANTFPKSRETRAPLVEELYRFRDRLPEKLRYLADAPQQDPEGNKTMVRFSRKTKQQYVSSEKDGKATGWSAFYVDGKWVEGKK
Nature of the test: SPR. The class given is binding. The settings on record: PBS-P, pH 7.4, 1% DMSO; no DNA; average of three experimental replicates.

Chain of M. tuberculosis topoI (MttopoI) (P9WG49 whole entry): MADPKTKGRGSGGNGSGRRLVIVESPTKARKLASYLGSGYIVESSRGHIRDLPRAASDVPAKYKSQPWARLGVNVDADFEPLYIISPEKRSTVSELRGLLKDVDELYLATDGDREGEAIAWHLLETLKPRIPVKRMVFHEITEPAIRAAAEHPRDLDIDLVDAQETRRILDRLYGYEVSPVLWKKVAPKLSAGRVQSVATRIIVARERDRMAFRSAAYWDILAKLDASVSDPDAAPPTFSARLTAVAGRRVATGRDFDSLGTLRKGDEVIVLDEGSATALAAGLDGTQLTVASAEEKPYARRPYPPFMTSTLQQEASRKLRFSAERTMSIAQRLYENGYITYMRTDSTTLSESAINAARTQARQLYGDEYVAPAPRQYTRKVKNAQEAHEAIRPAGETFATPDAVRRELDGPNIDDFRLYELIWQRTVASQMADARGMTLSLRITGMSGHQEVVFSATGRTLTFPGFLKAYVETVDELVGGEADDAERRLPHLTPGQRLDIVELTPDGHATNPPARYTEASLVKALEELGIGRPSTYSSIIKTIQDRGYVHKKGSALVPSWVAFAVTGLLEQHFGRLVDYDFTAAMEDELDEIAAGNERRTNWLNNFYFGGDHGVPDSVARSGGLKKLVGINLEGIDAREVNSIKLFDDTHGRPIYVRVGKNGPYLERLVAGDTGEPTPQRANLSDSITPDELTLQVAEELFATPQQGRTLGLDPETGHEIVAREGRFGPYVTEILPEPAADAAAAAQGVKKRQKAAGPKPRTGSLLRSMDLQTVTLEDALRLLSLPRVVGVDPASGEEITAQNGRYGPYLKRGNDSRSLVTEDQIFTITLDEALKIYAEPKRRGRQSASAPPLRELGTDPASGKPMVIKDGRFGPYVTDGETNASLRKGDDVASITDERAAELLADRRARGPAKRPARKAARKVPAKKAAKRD

On to `O=C(Nc1ccc(Sc2ccc(N=Nc3c(O)c(S(=O)(=O)O)cc4cc(S(=O)(=O)O)ccc34)cc2)cc1)c1ccc(N=Nc2c(O)ccc3c(S(=O)(=O)O)cc(S(=O)(=O)O)cc23)cc1` [NSC76027], for which the IC50 in test [1] is approximately 3000 nM. The Kd in test [2] worked out at 79 ± 8 nM.

As usually defined, the IC50 is the concentration that gives 50% inhibition. High values mean weaker potency in that assay, low ones greater potency in that assay. One may read the Kd as the equilibrium constant for the complex coming apart.
